Measurements published in patent publication US9446034B2, “Pyrazolylaminopyridines as inhibitors of FAK” (GlaxoSmithKline LLC, priority 2008, dated 2016).

Key:
GST-tagged FAK = biological target: T1, GST-tagged FAK (Homo sapiens, UniProt Q05397); assay: Biochemical assay for FAK activity, Assay 1: GST-FAK, peptide substrate phosphorylation with 33P-ATP; conditions: 5 μM ATP, 30 min pre-incubation, read-out: Assay 1 FAK TRF PXC50 (converted)
T1 construct: purchased Invitrogen PV3832
Experimental: (§1) Biochemical Assay for FAK Activity
To measure inhibitors of FAK, compounds were first prepared as a 10× stock in 10% DMSO. […] A 6-nM GST-FAK solution was prepared in 1.1× reaction buffer containing 44 mM HEPES, pH=7.2, 11 mM MgCl2, 2.2 mM MnCl2, 1.1 mM DTT and 0.011% Tween-20. Then, 20 μL of the 6 nM GST-FAK solution were pre-incubated with the compounds for 30 min at room temperature. […] The reaction was allowed to proceed for 90 min before being quenched with 40 μL of 1% H3PO4. A portion of the reaction mixture (60 μL) was transferred to a phospho-cellulose filter plate (Millipore; www.millipore.com, MAPHNOB50) and incubated for 20 minutes. The plate was filtrated, washed three times using 150 μL of 0.5% H3PO4 and dried at 50° C. for 30 min. After the addition of 60 μL Microscint-20 to the plate, radioactivity was measured using a TopCount (PerkinElmer; www.PerkinElmer.com).

[1] = biological target: T2, Full length Human FAK (FLAG-6×His-TEV-huFAK) (Homo sapiens, UniProt Q05397); assay: Biochemical assay for FAK activity, Assay 2: Flag-His-TEV-FAK1, LANCE Ultra ULight peptide phosphorylation; conditions: Flag-His-TEV-FAK1, 10 μM ATP, 30 min pre-incubation; read-out: Assay 2 FAK H 31284A TRF PXC50 (converted)
T2 construct: Full length Human FAK was expressed using baculovirus in Sf9 cells; made in house; host or cells: baculovirus in Sf9 cells
T2 sequence (Q05397 whole entry): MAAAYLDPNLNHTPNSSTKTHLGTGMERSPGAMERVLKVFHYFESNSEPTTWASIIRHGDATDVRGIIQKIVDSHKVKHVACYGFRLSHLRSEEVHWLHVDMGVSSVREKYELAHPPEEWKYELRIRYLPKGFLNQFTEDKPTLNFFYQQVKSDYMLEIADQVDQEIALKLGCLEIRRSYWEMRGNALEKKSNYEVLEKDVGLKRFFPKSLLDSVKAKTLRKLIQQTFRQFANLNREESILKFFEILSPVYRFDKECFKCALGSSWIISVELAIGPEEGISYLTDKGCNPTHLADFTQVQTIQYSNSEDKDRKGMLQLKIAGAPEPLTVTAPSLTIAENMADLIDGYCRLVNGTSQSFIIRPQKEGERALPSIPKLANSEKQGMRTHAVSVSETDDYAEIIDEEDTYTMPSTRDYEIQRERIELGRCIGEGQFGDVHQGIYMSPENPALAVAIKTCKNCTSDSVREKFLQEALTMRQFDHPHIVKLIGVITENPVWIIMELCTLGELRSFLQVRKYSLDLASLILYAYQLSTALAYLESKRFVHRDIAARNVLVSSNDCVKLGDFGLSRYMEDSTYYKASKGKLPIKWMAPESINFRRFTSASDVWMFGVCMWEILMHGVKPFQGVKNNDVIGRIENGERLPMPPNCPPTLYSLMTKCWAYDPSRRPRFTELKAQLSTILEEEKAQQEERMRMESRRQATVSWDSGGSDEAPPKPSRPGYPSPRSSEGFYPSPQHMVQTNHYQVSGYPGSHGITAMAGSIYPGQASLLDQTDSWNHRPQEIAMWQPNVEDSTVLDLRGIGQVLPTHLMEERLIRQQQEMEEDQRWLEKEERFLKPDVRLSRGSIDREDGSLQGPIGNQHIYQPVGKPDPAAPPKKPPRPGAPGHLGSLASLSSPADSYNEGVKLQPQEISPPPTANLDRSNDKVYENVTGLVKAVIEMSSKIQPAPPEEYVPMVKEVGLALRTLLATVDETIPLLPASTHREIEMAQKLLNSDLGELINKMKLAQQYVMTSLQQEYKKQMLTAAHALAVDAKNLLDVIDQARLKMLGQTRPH
Experimental: as §1
Assay 2: Flag-His-TEV-FAK1 was prepared in-house. Full length Human FAK was expressed using baculovirus in Sf9 cells with N-terminal FLAG-6×His tags followed by a TEV cleavage site (FLAG-6×His-TEV-huFAK). […] To measure inhibitors of FAK, compounds were first prepared as a 100× stock in 100% DMSO. A small portion of each compound solution (50 nL) was added to a black 384-well low-volume microtiter plate (Greiner 784076). A 1.2 nM Flag-His-TEV-FAK1 solution was prepared in 1× reaction buffer containing 40 mM Tris/Tris-HCL, 10 mM MgCl2, 1 mM CHAPS, at a pH of 7.5, with 1 mM DTT added. 2.5 ul of the 1.2 nM Flag-FAK solution was added to the plates and pre-incubated with the compounds for 30 min at room temperature. […] After incubating for 120 minutes at room temperature, the reaction is quenched by adding 5 uL of 20 mM EDTA and 5nMEu-Anti-pTyr antibody in 1× LANCE detection buffer. After a 30 minute incubation at room temperature, the plate is read on a Perkin Elmer Viewlux with a 320-340 nm excitation filter and measuring emission at 615 nm and 665 nm. The ratio of 665 nm/615 nm is used for data normalization.

T1 sequence (Q05397 whole entry): as above

SMILES | IC50 (GST-tagged FAK) | IC50 [1]
CCNC(=O)c1ccccc1Nc1cc(Nc2ccnn2CC)ncc1Cl [Example 44, 2-({5-Chloro-2-[(1-ethyl-1H-pyrazol-5-yl)amino]-4-pyridinyl}amino)-N-ethylbenzamide] | 6.31 nM | 63.1 nM
CCn1nccc1Nc1cc(Nc2cc(F)c(F)cc2C(=O)NC)c(Cl)cn1 [Example 10, 2-({5-Chloro-2-[(1-ethyl-1H-pyrazol-5-yl)amino]-4-pyridinyl}amino)-4,5-difluoro-N-methylbenzamide] | 0.794 nM | 10 nM
